Data on seven molecules can be found in patent publication US11339161B2, “Triazolo pyridines as modulators of gamma-secretase” (Boehringer Ingelheim International GmbH, priority 2017, dated 2022).

In one assay the test system is Aβ total. The assay can be described thus: Aβ total levels in H4 neuroglioma cells stably expressing human APP695 (MSD electrochemiluminescence). Type of assay: cell-based. The following applies: selectivity ratio vs. Aβtotal. An outline of the steps: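 H4 cells expressing human APP695, plated near confluency, exposed 22 h at 37 °C to compounds over 30 μM–0.1 nM (0.5% DMSO final). Supernatant Aβ total quantified by MSD electrochemiluminescence immunoassay.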

For the next assay, the target named is ABL1 (Homo sapiens, UniProt P00519). The experiment in a line: Z'-LYTE SelectScreen biochemical kinase assay ABL1. The text has this: (§1) Thermo Fisher Scientific SelectScreen™ Biochemical Kinase Profiling Service Z′-LYTE™ Screening Protocol and Assay Conditions Assay Theory
Chain of ABL1 (P00519 whole entry): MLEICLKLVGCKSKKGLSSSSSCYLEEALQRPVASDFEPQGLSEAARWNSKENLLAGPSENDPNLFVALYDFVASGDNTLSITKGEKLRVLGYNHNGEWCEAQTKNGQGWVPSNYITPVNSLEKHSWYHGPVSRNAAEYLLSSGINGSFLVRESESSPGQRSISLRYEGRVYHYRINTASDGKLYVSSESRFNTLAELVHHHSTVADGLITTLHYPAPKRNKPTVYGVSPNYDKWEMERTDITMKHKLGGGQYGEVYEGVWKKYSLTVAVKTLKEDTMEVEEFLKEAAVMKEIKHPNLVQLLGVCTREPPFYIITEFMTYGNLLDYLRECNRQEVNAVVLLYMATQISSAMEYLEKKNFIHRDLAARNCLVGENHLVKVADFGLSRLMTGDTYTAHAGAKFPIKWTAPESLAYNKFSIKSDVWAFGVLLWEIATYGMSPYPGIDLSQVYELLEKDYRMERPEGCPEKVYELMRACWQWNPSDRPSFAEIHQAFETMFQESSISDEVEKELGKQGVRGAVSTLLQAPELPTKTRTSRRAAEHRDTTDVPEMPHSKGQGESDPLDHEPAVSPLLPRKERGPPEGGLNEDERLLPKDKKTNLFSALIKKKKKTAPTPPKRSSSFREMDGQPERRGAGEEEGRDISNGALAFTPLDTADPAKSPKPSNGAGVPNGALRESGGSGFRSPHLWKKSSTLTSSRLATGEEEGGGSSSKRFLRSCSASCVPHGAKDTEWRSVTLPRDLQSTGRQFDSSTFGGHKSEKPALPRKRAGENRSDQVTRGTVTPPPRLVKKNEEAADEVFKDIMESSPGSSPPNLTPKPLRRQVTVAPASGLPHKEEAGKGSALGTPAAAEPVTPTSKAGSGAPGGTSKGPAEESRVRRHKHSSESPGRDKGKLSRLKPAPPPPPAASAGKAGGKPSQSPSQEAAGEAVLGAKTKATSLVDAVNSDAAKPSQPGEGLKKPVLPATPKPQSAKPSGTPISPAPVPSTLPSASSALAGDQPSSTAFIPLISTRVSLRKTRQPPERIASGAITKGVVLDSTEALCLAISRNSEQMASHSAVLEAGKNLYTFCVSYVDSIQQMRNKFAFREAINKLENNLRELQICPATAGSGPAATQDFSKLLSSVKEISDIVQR
(§2) The […] biochemical assay employs a fluorescence-based, coupled-enzyme format and is based on the differential sensitivity of phosphorylated and non-phosphorylated peptides to proteolytic cleavage. The peptide substrate is labeled with two fluorophores—one at each end—that make up a FRET pair. In the primary reaction, the kinase transfers the gamma-phosphate of ATP to a single tyrosine, serine or threonine residue in a synthetic FRET-peptide. In the secondary reaction, a site-specific protease recognizes and cleaves non-phosphorylated FRET-peptides. Phosphorylation of FRET-peptides suppresses cleavage by the Development Reagent. Cleavage disrupts FRET between the donor (i.e., coumarin) and acceptor (i.e., fluorescein) fluorophores on the FRET-peptide, whereas uncleaved, phosphorylated FRET-peptides maintain FRET. A ratiometric method, which calculates the ratio (Emission Ratio=Coumarin emission (445 nm)/Fluorescein emission (520 nm)) of donor emission to acceptor emission after excitation of the donor fluorophore at 400 nm, is used to quantitate reaction progress, as shown in the equation below. A significant benefit of this ratiometric method for quantitating reaction progress is the elimination of well-to-well variations in FRET-peptide concentration and signal intensities. As a result, the assay yields very high Z′-factor values (>0.7) at a low percent phosphorylation. Both cleaved and uncleaved FRET-peptides contribute to the fluorescence signals and therefore to the Emission Ratio. The extent of phosphorylation of the FRET-peptide can be calculated from the Emission Ratio. The Emission Ratio will remain low if the FRET-peptide is phosphorylated (i.e., no kinase inhibition) and will be high if the FRET-peptide is non-phosphorylated (i.e., kinase inhibition).
(§3) The Test Compounds are screened in 1% DMSO (final) in the well. For 10 point titrations, 3-fold serial dilutions are conducted from the starting concentration of the customer's choosing.
(§4) All Peptide/Kinase Mixtures are diluted to a 2× working concentration in the appropriate Kinase Buffer (see section Kinase Specific Assay Conditions for a complete description).
(§5) All ATP Solutions are diluted to a 4× working concentration in Kinase Buffer (50 mM HEPES pH 7.5, 0.01% BRIJ-35, 10 mM MgCl2, 1 mM EGTA). ATP Km apparent is previously determined using a Z″-LYTE assay.
(§6) The Development Reagent is diluted in Development Buffer (see section Kinase-Specific Assay Conditions—Direct and Cascade for a complete description).
(§7) Bar-coded Corning, low volume NBS, black 384-well plate (Corning Cat. #4514) • 1. 100 nL—100× Test Compound in 100% DMSO • 2. 2.4 μL—Kinase buffer • 3. 5 μL—2× Peptide/Kinase Mixture • 4. 2.5 μL—4×ATP Solution • 5. 30—second plate shake • 6. 60—minute Kinase Reaction incubation at room temperature • 7. 5 μL—Development Reagent Solution • 8. 30—second plate shake • 9. 60—minute Development Reaction incubation at room temperature • 10. Read on fluorescence plate reader and analyze the data Z′-LYTE Assay Controls
(§8) SelectScreen Kinase Profiling Service uses XLfit from IDBS. The dose response curve is curve fit to model number 205 (sigmoidal dose-response model).
The 2×ABL1/Tyr 02 mixture is prepared in 50 mM HEPES pH 7.5, 0.01% BRIJ-35, 10 mM MgCl2, 1 mM EGTA. The final 10 μL Kinase Reaction consists of 0.29-1.26 ng ABL1 and 2 μM Tyr 02 in 50 mM HEPES pH 7.5, 0.01% BRIJ-35, 10 mM MgCl2, 1 mM EGTA. After the 1 hour Kinase Reaction incubation, 5 μL of a 1:128 dilution of Development Reagent A is added.

The target of another assay is CDK5/p35 (Homo sapiens, UniProt Q00535). The assay can be described thus: Z'-LYTE SelectScreen biochemical kinase assay CDK5/p35.
Chain of CDK5/p35 (Q00535 whole entry): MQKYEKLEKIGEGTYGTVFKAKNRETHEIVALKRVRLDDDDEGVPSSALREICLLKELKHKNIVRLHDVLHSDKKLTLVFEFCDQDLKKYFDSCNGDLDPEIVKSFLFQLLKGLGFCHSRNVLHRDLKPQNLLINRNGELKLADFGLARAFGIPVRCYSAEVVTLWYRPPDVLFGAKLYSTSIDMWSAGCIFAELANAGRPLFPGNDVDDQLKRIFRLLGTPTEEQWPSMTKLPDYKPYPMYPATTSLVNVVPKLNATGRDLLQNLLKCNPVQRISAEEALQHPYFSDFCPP
Chain of CDK5/p35 (Q15078 whole entry partner): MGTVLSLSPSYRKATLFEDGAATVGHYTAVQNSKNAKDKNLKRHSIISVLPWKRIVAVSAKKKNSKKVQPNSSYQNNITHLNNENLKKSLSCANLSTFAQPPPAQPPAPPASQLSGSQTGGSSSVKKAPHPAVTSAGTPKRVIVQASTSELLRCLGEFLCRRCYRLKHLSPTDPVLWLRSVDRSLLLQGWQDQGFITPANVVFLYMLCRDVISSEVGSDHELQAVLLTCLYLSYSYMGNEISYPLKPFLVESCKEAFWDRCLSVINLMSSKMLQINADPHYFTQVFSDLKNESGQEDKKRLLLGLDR
Description: as §1, §2, §3, §4, §5, §6, §7, §8
The 2×CDK5/p35/Ser/Thr 12 mixture is prepared in 50 mM HEPES pH 7.5, 0.01% BRIJ-35, 10 mM MgCl2, 1 mM EGTA. The final 10 μL Kinase Reaction consists of 0.14-1.3 ng CDK5/p35 and 2 μM Ser/Thr 12 in 50 mM HEPES pH 7.5, 0.01% BRIJ-35, 10 mM MgCl2, 1 mM EGTA. After the 1 hour Kinase Reaction incubation, 5 μL of a 1:4096 dilution of Development Reagent A is added.

In a further assay the target is FGFR1 (Homo sapiens, UniProt P11362). The assay can be described thus: Z'-LYTE SelectScreen biochemical kinase assay FGFR1.
Chain of FGFR1 (P11362 22-822): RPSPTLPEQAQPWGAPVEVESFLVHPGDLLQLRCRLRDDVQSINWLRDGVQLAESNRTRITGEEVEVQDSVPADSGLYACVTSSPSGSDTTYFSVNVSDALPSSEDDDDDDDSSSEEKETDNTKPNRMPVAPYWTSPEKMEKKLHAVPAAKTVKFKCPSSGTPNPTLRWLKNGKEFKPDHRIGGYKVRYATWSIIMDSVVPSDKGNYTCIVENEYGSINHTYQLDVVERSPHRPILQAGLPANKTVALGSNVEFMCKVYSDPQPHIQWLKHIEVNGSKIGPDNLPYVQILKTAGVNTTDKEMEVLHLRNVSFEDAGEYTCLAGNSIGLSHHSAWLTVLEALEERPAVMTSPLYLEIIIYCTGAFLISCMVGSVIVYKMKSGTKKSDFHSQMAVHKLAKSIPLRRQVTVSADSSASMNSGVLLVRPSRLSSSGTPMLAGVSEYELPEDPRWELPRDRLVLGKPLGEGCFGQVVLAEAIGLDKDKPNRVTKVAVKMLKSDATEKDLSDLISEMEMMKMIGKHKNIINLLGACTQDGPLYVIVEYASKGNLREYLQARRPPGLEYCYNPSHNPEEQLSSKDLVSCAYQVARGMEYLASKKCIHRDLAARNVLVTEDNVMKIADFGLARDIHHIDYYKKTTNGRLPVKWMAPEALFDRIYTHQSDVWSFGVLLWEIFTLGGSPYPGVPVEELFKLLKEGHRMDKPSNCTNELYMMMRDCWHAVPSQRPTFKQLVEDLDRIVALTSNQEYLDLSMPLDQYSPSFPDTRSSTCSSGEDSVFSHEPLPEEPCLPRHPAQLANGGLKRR
Description: as §1, §2, §3, §4, §5, §6, §7, §8
The 2×FGFR1/Tyr 04 mixture is prepared in 50 mM HEPES pH 7.5, 0.01% BRIJ-35, 10 mM MgCl2, 4 mM MnCl2, 1 mM EGTA, 2 mM DTT. The final 10 μL Kinase Reaction consists of 0.44-2.45 ng FGFR1 and 2 μM Tyr 04 in 50 mM HEPES pH 7.5, 0.01% BRIJ-35, 10 mM MgCl2, 2 mM MnCl2, 1 mM EGTA, 1 mM DTT. After the 1 hour Kinase Reaction incubation, 5 μL of a 1:64 dilution of Development Reagent B is added.

Setting [1] is: 10 μmolar compound concentration, ATP at Km app, read-out: ABL1 inhibition.
[2] abbreviates: read-out: % Inhibition mean ABL1.
The mark [3] stands for this setting: 10 μmolar compound concentration, ATP at Km app, read-out: CDK5/p35 inhibition.
Setting [4] is: read-out: % Inhibition mean CDK5/p35.
The mark [5] stands for this setting: 10 μmolar compound concentration, ATP at Km app, read-out: FGFR1 inhibition.
Setting [6] is: read-out: % Inhibition mean FGFR1.

Read-outs that look alike come from different tables or passages of the source. Where only a bound is given, the exact number is not on record here.

In the case of `Cc1cc(F)ccc1-c1cccn2nc(NC3CCc4c(cnn4CC(C)C)C3)nc12` (stereo not shown) [Example 45, [8-(4-fluoro-2-methyl-phenyl)-[1,2,4]triazolo[1,5-a]pyridine-2-yl]-(1-isobutyl-4,5,6,7-tetrahydro-1H-indazol-5-yl)-amine], the “Ratio AβTotal IC50/Aβ42 IC50” value with Aβ total (Table 4a) was found to be 4. Besides, the inhibition at 10 µM at ABL1 (setting [1]) is less than 40%; on ABL1 (setting [2]), 24%; at CDK5/p35 (setting [3]), less than 40%; at CDK5/p35 (setting [4]), 8%; at FGFR1 (setting [5]), less than 40%; at FGFR1 (setting [6]), 9%.

As for `Cc1cc(F)ccc1-c1cccn2nc(NC3CCc4cnn(C)c4C3)nc12` (stereo not shown) [Example 40, [8-(4-Fluoro-2-methyl-phenyl)-[1,2,4]triazolo[1,5-a]pyridine-2-yl]-(1-methyl-4,5,6,7-tetrahydro-1H-indazol-6-yl)-amine], the “Ratio AβTotal IC50/Aβ42 IC50” value in the assay with Aβ total (Table 4a) worked out at 1. For the same molecule, the inhibition at 10 µM on ABL1 (setting [1]) is less than 40%; on ABL1 (setting [2]), 9%; at CDK5/p35 (setting [3]), 40 to 80%; at CDK5/p35 (setting [4]), 61%; on FGFR1 (setting [5]), less than 40%; at FGFR1 (setting [6]), 27%.

For `CCn1ncc2c1CCC(Nc1nc3c(-c4ccccc4)cccn3n1)C2` (stereo not shown) [Example 57, (1-Ethyl-4,5,6,7-tetrahydro-1H-indazol-5-yl)-(8-phenyl-[1,2,4]triazolo[1,5-a]pyridine-2-yl)-amine], the “Ratio AβTotal IC50/Aβ42 IC50” value with Aβ total (Table 4a) is listed as 104. In addition, the inhibition at 10 µM was less than 40% on ABL1 (setting [1]); 11% at ABL1 (setting [2]); less than 40% at CDK5/p35 (setting [3]); 26% on CDK5/p35 (setting [4]); less than 40% at FGFR1 (setting [5]); 23% on FGFR1 (setting [6]).

In the case of `CCn1ncc2c1CCC(Nc1nc3c(-c4ccccc4C)cccn3n1)C2` (stereo not shown) [Example 56, (1-Ethyl-4,5,6,7-tetrahydro-1H-indazol-5-yl)-[8-(2-methyl-phenyl)-[1,2,4]triazolo[1,5-a]pyridine-2-yl]-amine], in the assay with Aβ total (Table 4a), the “Ratio AβTotal IC50/Aβ42 IC50” value stood at 49. The inhibition at 10 µM was less than 40% on ABL1 (setting [1]); 20% at ABL1 (setting [2]); 40 to 80% at CDK5/p35 (setting [3]); 52% at CDK5/p35 (setting [4]); less than 40% on FGFR1 (setting [5]); 20% on FGFR1 (setting [6]).

For `Fc1cccc(-c2cccn3nc(Nc4ccc5[nH]cnc5c4)nc23)c1` [Cpd. 293 in WO09155551, reference compound], the “Ratio AβTotal IC50/Aβ42 IC50” value in the assay with Aβ total (prior art compounds, Table 4b) amounted to 1. The inhibition at 10 µM at ABL1 (setting [1]) was more than 80%; at ABL1 (read-out: % Inhibition mean), 97%; at CDK5/p35 (setting [3]), more than 80%; on CDK5/p35 (read-out: % Inhibition mean) it was 90%; on FGFR1 (setting [5]), more than 80%; on FGFR1 (read-out: % Inhibition mean), 93%.

Consider `Cc1cc(F)ccc1-c1cccn2nc(NC3CCc4c(cnn4C)C3)nc12` (stereo not shown) [Example 10, [8-(4-fluoro-2-methyl-phenyl)-[1,2,4]triazolo[1,5-a]pyridine-2-yl]-(1-methyl-4,5,6,7-tetrahydro-1H-indazol-5-yl)-amine], for which the “Ratio AβTotal IC50/Aβ42 IC50” value with Aβ total (Table 4a) was 27. The inhibition at 10 µM is less than 40% on ABL1 (setting [1]); 1% on ABL1 (setting [2]); 40 to 80% on CDK5/p35 (setting [3]); 44% on CDK5/p35 (setting [4]); less than 40% at FGFR1 (setting [5]); 15% on FGFR1 (setting [6]).

As to `CCCCCn1ncc2c1CCC(Nc1nc3c(-c4ccc(F)cc4C)cccn3n1)C2` (stereo not shown) [Example 47, [8-(4-fluoro-2-methyl-phenyl)-[1,2,4]triazolo[1,5-a]pyridine-2-yl]-(1-pentyl-4,5,6,7-tetrahydro-1H-indazol-5-yl)-amine], the “Ratio AβTotal IC50/Aβ42 IC50” value in the assay with Aβ total (Table 4a) came to 1. In addition, the inhibition at 10 µM on ABL1 (setting [1]) is less than 40%; at ABL1 (setting [2]), 3%; on CDK5/p35 (setting [3]), less than 40%; at CDK5/p35 (setting [4]), 13%; at FGFR1 (setting [5]) it was less than 40%; on FGFR1 (setting [6]), 21%.
